# According to PubChem BioAssay AID1918942 (Molecular Pharmacology Branch, DTP, NCI, 2023):
# Values joined by “and” are separate entries in the source; they are usually repeats but may differ in a detail not shown here. Equal entries are not always repeated.
# System: 743489-274-T-PDC complex spheroid viability
# Test: Anticancer human tumor 743489-274-T-PDC patient-derived renal cell carcinoma cell line growth inhibition
# Conditions: for viability, T/C: stronger effect = lower value
# From the text: Multicellular complex tumor spheroid response to LSD1 Inhibitor Iadademstat in combination with a variety of drugs and investigational agents in selected tumor cell lines
# The current study was undertaken to assess response to LSD1 inhibitors in combination with standard-of-care drugs and investigational agents in solid tumor complex spheroid models as well as in the K-562 leukemia. Complex spheroids include a stromal component modeled by human endothelial cells (HUVEC) and fibroblasts modeled by human mesenchymal stem cells (MSCs). The concentration ranges selected for each drug and investigational agent were based upon clinically achievable concentrations if the clinical Cmax of the agent was known.
# Compounds. The drugs and investigational agents used in this study are listed on Table 1. All of the agents used, including staurosporine (NSC755774) and gemcitabine (NSC613327), were obtained from the Developmental Therapeutics Program, NCI. FDA-approved anticancer drugs are available from the NCI at http://dtp.nci.nih.gov/branches/dscb/oncology_drugset_explanation.html. Drugs and investigational agents were >95% pure by proton nuclear magnetic resonance (NMR) and liquid chromatography/mass spectrometry (LC/MS). Stock solutions were prepared at 400x in DMSO, stored at -70 degrees C, and diluted in fresh medium prior to their use. The final concentration of DMSO in cell culture wells never exceeded 0.25% (v/v). The FDA-approved anticancer drug set is available from the Developmental Therapeutics Program at https://dtp.cancer.gov/organization/dscb/obtaining/available_plates.htm. All drugs and investigational agents were tested over a range starting from a high concentration at or near the clinical Cmax and decreasing in half-log increments. If the clinical Cmax for an agent had not been determined, the highest concentration tested was 10 microM.
# Cell Lines. The patient-derived cancer cell (PDC) lines: 292921-168-R-J2-PDC, K24384-001-R-PDC, and 521955-158-R2-J5-PDC pancreatic carcinomas, 556581-035-R-J1 ovarian carcinoma, 324938-238-R-J1-PDC, 855422-203-R-J1-PDC and 883617-216-R-J1-PDC urothelial bladder carcinomas, 743489-274-T-PDC renal cell carcinoma, 138582-R-J1 Merkel cell tumor, K60290-347-R-J1 and K57222-313-R-J1-PDC glioblastomas, 653999-131-R-J2-PDC, LG0703-F948-PDC, and 349418-098-R-PDC non-small cell lung carcinomas, 885512-296-R-J2-PDC, 171881-019-R-J1-PDC breast carcinomas and 186277-243-T-J2-PDC and 233499-124-R-J2-PDC colon carcinomas were obtained from the NCI Patient-Derived Models Repository (PDMR, https://pdmr.cancer.gov). The established cell lines NCI/ADR-RES (RRID:CVCL_14520 and OVCAR-5 (RRID:CVCL_1628) ovarian carcinomas, 786-O (RRID:CVCL_1051) and A498 (RRID:CVCL_A498) renal cell carcinoma, NCI-H211 (ATCC, cat. CRL-5824; RRID:CVCL_1529), NCI-H196 (ATCC, cat. CRL-5823, RRID:CVCL_1509), SW 1271 (ATCC, cat. CRL-2177, RRID:CVCL_1716) and NCI-H1876 (ATCC, cat. CRL-5902, RRID:CVCL_1503) small cell lung carcinomas, MDA-MB-231 (RRID:CVCL_0062) and MDA-MB-468 (RRID:CVCL_0419)breast carcinomas (10-12). Pooled donor human umbilical vein endothelial cells (HUVEC, Lonza, cat. CC-2519) and human mesenchymal stem cells (hMSC, Lonza, cat. PT-2501) were purchased from Lonza (Walkersville, MD).
# Cell Culture. All cells were maintained in an incubator at 37 degrees C and 5% CO2 with 95% humidity. The PDC lines were cultured according to standard operating procedures established by the NCI PDMR (https://pdmr.cancer.gov). Briefly all PDCs were thawed and cultured in Matrigel-coated flasks prepared with a working solution of 1X Ham's F-12 nutrient mix, without supplementation (Invitrogen, Waltham, MA, cat. 11765054), 100 U/mL penicillin-streptomycin (Invitrogen, cat. 15140122), and 2.5% Matrigel (Corning Inc., Corning, NY, cat. 354248) for the first three passages. […]
# [1] = curve of first compound, second compound 0.1 µM
# [2] = curve of first compound, second compound 0.316 µM
# [3] = curve of first compound, second compound 1 µM
# [4] = curve of first compound, second compound 3.16 µM
# [5] = curve of first compound, second compound 10 µM
# [6] = second compound 0.1 µM, first compound 0.0316 µM
# [7] = second compound 0.1 µM, first compound 0.1 µM
# [8] = second compound 0.1 µM, first compound 0.316 µM
# [9] = second compound 0.1 µM, first compound 1 µM
# [10] = second compound 0.1 µM, first compound 3.16 µM
# [11] = second compound 0.1 µM, first compound 10 µM
# [12] = second compound 0.316 µM, first compound 0.0316 µM
# [13] = second compound 0.316 µM, first compound 0.1 µM
# [14] = second compound 0.316 µM, first compound 0.316 µM
# [15] = second compound 0.316 µM, first compound 1 µM
# [16] = second compound 0.316 µM, first compound 3.16 µM
# [17] = second compound 0.316 µM, first compound 10 µM
# [18] = second compound 1 µM, first compound 0.0316 µM
# [19] = second compound 1 µM, first compound 0.1 µM
# [20] = second compound 1 µM, first compound 0.316 µM
# [21] = second compound 1 µM, first compound 1 µM
# [22] = second compound 1 µM, first compound 3.16 µM
# [23] = second compound 1 µM, first compound 10 µM
# [24] = second compound 3.16 µM, first compound 0.0316 µM
# [25] = second compound 3.16 µM, first compound 0.1 µM
# [26] = second compound 3.16 µM, first compound 0.316 µM
# [27] = second compound 3.16 µM, first compound 1 µM
# [28] = second compound 3.16 µM, first compound 3.16 µM
# [29] = second compound 3.16 µM, first compound 10 µM
# [30] = second compound 10 µM, first compound 0.0316 µM
# [31] = second compound 10 µM, first compound 0.1 µM
# [32] = second compound 10 µM, first compound 0.316 µM
# [33] = second compound 10 µM, first compound 1 µM
# [34] = second compound 10 µM, first compound 3.16 µM
# [35] = second compound 10 µM, first compound 10 µM
# 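Further: spheroids exposed to compounds for 7 days before readout.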
# 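Wherever viability, T/C is given: 100% = DMSO vehicle control wells.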
smiles,measurement,setting,value
CC1(C)CCC(CN2CCN(c3ccc(C(=O)NS(=O)(=O)c4ccc(NCC5CCOCC5)c([N+](=O)[O-])c4)c(Oc4cnc5[nH]ccc5c4)c3)CC2)=C(c2ccc(Cl)cc2)C1 + NC1CCC(NC2CC2c2ccccc2)CC1,IC50,[1],> 10 µM
same,IC50,[2],> 10 µM
same,IC50,[3],> 10 µM
same,IC50,[4],> 10 µM
same,IC50,[5],> 10 µM
same,"viability, T/C",[6],105%
same,"viability, T/C",[7],124%
same,"viability, T/C",[8],114%
same,"viability, T/C",[9],105%
same,"viability, T/C",[10],125%
same,"viability, T/C",[11],124%
same,"viability, T/C",[12],125%
same,"viability, T/C",[13],122%
same,"viability, T/C",[14],116%
same,"viability, T/C",[15],109%
same,"viability, T/C",[16],117%
same,"viability, T/C",[17],123%
same,"viability, T/C",[18],125%
same,"viability, T/C",[19],114%
same,"viability, T/C",[20],119%
same,"viability, T/C",[21],126%
same,"viability, T/C",[22],134%
same,"viability, T/C",[23],136%
same,"viability, T/C",[24],114%
same,"viability, T/C",[25],130%
same,"viability, T/C",[26],134%
same,"viability, T/C",[27],114%
same,"viability, T/C",[28],117%
same,"viability, T/C",[29],111%
same,"viability, T/C",[30],128%
same,"viability, T/C",[31],117%
same,"viability, T/C",[32],118%
same,"viability, T/C",[33],122%
same,"viability, T/C",[34],129%
same,"viability, T/C",[35],102%
CC(C)CC(NC(=O)C(Cc1ccccc1)NC(=O)c1cnccn1)B(O)O (centres undefined),"viability, T/C",compound 0.000316 µM,102% and 104%
same,"viability, T/C",compound 0.001 µM,93.9% and 105%
same,"viability, T/C",compound 0.00316 µM,106% and 94.2%
same,"viability, T/C",compound 0.01 µM,31% and 40%
same,"viability, T/C",compound 0.0316 µM,26.9% and 31.4%
same,"viability, T/C",compound 0.1 µM,24.4% and 27.6%
same,IC50,curve of compound,0.00731 µM and 0.00809 µM
O=C(c1cc(Cc2n[nH]c(=O)c3ccccc23)ccc1F)N1CCN(C(=O)C2CC2)CC1,"viability, T/C",compound 0.0316 µM,95.3% and 101%
same,"viability, T/C",compound 0.1 µM,88.2% and 113%
same,"viability, T/C",compound 0.316 µM,102% and 108%
same,"viability, T/C",compound 1 µM,108%
same,"viability, T/C",compound 3.16 µM,94.5% and 93.2%
same,"viability, T/C",compound 10 µM,83% and 82.5%
same,IC50,curve of compound,> 10 µM
Nc1ncn(C2CC(O)C(CO)S2)c(=O)n1 (centres undefined) + NC1CCC(NC2CC2c2ccccc2)CC1,IC50,[1],> 0.3 µM
same,IC50,[2],> 0.3 µM
same,IC50,[3],> 0.3 µM
same,IC50,[4],> 0.3 µM
same,IC50,[5],> 0.3 µM
same,"viability, T/C","second compound 0.1 µM, first compound 0.000949 µM",116%
same,"viability, T/C","second compound 0.1 µM, first compound 0.003 µM",95.5%
same,"viability, T/C","second compound 0.1 µM, first compound 0.00949 µM",104%
same,"viability, T/C","second compound 0.1 µM, first compound 0.03 µM",91.1%
same,"viability, T/C","second compound 0.1 µM, first compound 0.0949 µM",89.6%
same,"viability, T/C","second compound 0.1 µM, first compound 0.3 µM",80.5%
same,"viability, T/C","second compound 0.316 µM, first compound 0.000949 µM",106%
same,"viability, T/C","second compound 0.316 µM, first compound 0.003 µM",105%
same,"viability, T/C","second compound 0.316 µM, first compound 0.00949 µM",120%
same,"viability, T/C","second compound 0.316 µM, first compound 0.03 µM",110%
same,"viability, T/C","second compound 0.316 µM, first compound 0.0949 µM",95.6%
same,"viability, T/C","second compound 0.316 µM, first compound 0.3 µM",103%
same,"viability, T/C","second compound 1 µM, first compound 0.000949 µM",118%
same,"viability, T/C","second compound 1 µM, first compound 0.003 µM",112%
same,"viability, T/C","second compound 1 µM, first compound 0.00949 µM",107%
same,"viability, T/C","second compound 1 µM, first compound 0.03 µM",97.6%
same,"viability, T/C","second compound 1 µM, first compound 0.0949 µM",87.6%
same,"viability, T/C","second compound 1 µM, first compound 0.3 µM",87%
same,"viability, T/C","second compound 3.16 µM, first compound 0.000949 µM",112%
same,"viability, T/C","second compound 3.16 µM, first compound 0.003 µM",116%
same,"viability, T/C","second compound 3.16 µM, first compound 0.00949 µM",96.8%
same,"viability, T/C","second compound 3.16 µM, first compound 0.03 µM",108%
same,"viability, T/C","second compound 3.16 µM, first compound 0.0949 µM",88.4%
same,"viability, T/C","second compound 3.16 µM, first compound 0.3 µM",102%
same,"viability, T/C","second compound 10 µM, first compound 0.000949 µM",113%
same,"viability, T/C","second compound 10 µM, first compound 0.003 µM",125%
same,"viability, T/C","second compound 10 µM, first compound 0.00949 µM",101%
same,"viability, T/C","second compound 10 µM, first compound 0.03 µM",104%
same,"viability, T/C","second compound 10 µM, first compound 0.0949 µM",93.4%
same,"viability, T/C","second compound 10 µM, first compound 0.3 µM",98%
CC(C)c1c(-c2ccccc2)nc2c(C#N)c[nH]n2c1=O + NC1CCC(NC2CC2c2ccccc2)CC1,IC50,[1],> 10 µM
same,IC50,[2],> 10 µM
same,IC50,[3],> 10 µM
same,IC50,[4],> 10 µM
same,IC50,[5],> 10 µM
same,"viability, T/C",[6],97.2%
same,"viability, T/C",[7],115%
same,"viability, T/C",[8],104%
same,"viability, T/C",[9],127%
same,"viability, T/C",[10],99.9%
same,"viability, T/C",[11],104%
same,"viability, T/C",[12],106%
same,"viability, T/C",[13],99.3%
same,"viability, T/C",[14],126%
same,"viability, T/C",[15],108%
same,"viability, T/C",[16],108%
same,"viability, T/C",[17],104%
same,"viability, T/C",[18],119%
same,"viability, T/C",[19],120%
same,"viability, T/C",[20],100%
same,"viability, T/C",[21],111%
same,"viability, T/C",[22],105%
same,"viability, T/C",[23],114%
same,"viability, T/C",[24],111%
same,"viability, T/C",[25],111%
same,"viability, T/C",[26],114%
same,"viability, T/C",[27],119%
same,"viability, T/C",[28],98.8%
same,"viability, T/C",[29],112%
same,"viability, T/C",[30],118%
same,"viability, T/C",[31],121%
same,"viability, T/C",[32],130%
same,"viability, T/C",[33],121%
same,"viability, T/C",[34],120%
same,"viability, T/C",[35],104%
